Experimental data as given in US20260284041A1, “PREVENTIVE OR THERAPEUTIC AGENT FOR NEURODEGENERATIVE DISEASE” (MEDILABO RFP, INC., priority 2023, published 2026).
≈ marks a conversion by molar mass, not a printed value.

Legend:
[1] = test system: C9orf72 HRE-derived RNAs; conditions: in vitro; cited from earlier work
[2] = test system: PKR; conditions: reported in NPL 31; cited from earlier work
[3] = test system: BDNF; conditions: stated in discussion, no method given; cited from earlier work
[4] = test system: FTD/ALS model mice; experiment: Morris water maze test after nasal rifampicin and/or resveratrol (Test Example 2); format: in vivo, mouse; conditions: 1 month, 7- to 8-month-old mice, single agents 0.04 mg/day, combination 0.02 mg + 0.02 mg/day, FIG. 10
From the text: FVB/NJ-Tg(C9orf72)500Lpwr/J mice (FTD/ALS model mice) were purchased from The Jackson Laboratory (Bar Harbor, ME, USA). The mouse strain was generated as a model for the C9orf72-associated FTD/ALS expressing the human C9orf72 gene with about 500 hexanucleotide (GGGGCC) repeats using a bacterial artificial chromosome (BAC) vector. Transgenic (Tg) mice were crossed with wild-type FVB/NJcl mice, and the transgene was maintained as a heterozygote at our animal facility.
(§1) Age-matched non-Tg […] mates received only CMC.
After administration for one month, the cognitive function of the mice was assessed in the Morris water maze test as described above.

[5] = cited from earlier work
[6] = test system: FTD/ALS model mice; experiment: Immunohistochemical analysis of brain sections (Test Example 2); format: in vivo, mouse; conditions: single agents 0.04 mg/day, combination 0.02+0.02 mg/day, nasal 1 month
Procedure: as §1
After the behavioral test, each group was divided into two groups: one for immunohistochemical analysis and the other for future biochemical analysis. Immunohistochemical staining was performed as described above. For staining of double-stranded RNA-dependent protein kinase (PKR), phosphorylated TDP-43, synaptophysin, sections were boiled in 10 mM citrate buffer solution (pH6) for 30 min to expose the antigens. The sections were blocked overnight with 10% calf serum, and then the resultant sections were stained with antibodies for DNA/RNA G-quadruplex (BG4; Absolute antibody, Cleveland, UK), phospho-PKR (Thr446) (MilliporeSigma, Burlington, MA, USA), poly-GA, poly-GP (Cosmo Bio Co., Ltd., Tokyo, Japan), pSer409/410-TDP-43 (Cosmo Bio Co., Ltd.), and synaptophysin (SVP-38; Sigma-Aldrich, St. Luis, MO, USA). Only synaptophysin was stained with a biotin-labeled secondary antibody (Vector Laboratories, Burlingame, CA, USA), a horseradish peroxidase (HRP)-labeled avidin-biotin complex (Vector Laboratories), HRP substrate, diaminobenzidine (DAB), or an FITC-labeled secondary antibody (The Jackson Laboratory). […] Neuropathologies were evaluated by measuring the staining intensity or area or by counting positive puncta or cells in a constant area in each photograph using NIH ImageJ software.

[7] = test system: phospho-PKR (Thr446); experiment: Immunohistochemical studies of phosphorylated PKR (Test Example 1); format: in vivo, mouse; conditions: PFC and MC; nasal 0.1 mg/day for 1 month; FIG. 8B
Procedure: (§2) 4-and-a half to 5-month-old FTD/ALS model mice were divided into two groups. […] Non-Tg littermates were treated with CMC alone. […] After the behavioral test, each group was divided into two groups: one group for immunohistochemical analysis and the other group for future biochemical analysis. For immunohistochemical analysis, brain sections were prepared as described above, while for biochemical analysis, whole brains were removed and frozen at −80° C. until use.

[8] = test system: (GGGGCC)4 oligonucleotides; experiment: Gel shift assay for G-quadruplex; format: biochemical; conditions: 1 mM rifampicin, 5 μM DNA, 100 mM KCl; FIG. 8A
Procedure: The gel shift assay to detect G-quadruplex formation was performed. Sense (GGGGCC)4, antisense (GGCCCC)4, and Control (ATGC)6 oligonucleotides were synthesized and solubilized to 100 μM in 0.89 M of Tris-borate buffer, pH8.3 containing 0.02 M of EDTA (TBE). […] The mixtures were incubated at 98° C. for 3 min and slowly cooled to room temperature. The samples were mixed with Blue/Orange Loading Dye (Promega Corporation, Madison, WI, USA) and subjected to native PAGE with 20% polyacrylamide gel (Novex TBE Gels, Invitrogen, Carlsbad, CA, USA) and TBE running buffer containing 50 mM KCl. The gels were stained with SYBR Gold nucleic acid gel stain (Invitrogen) for 10 min, and images were acquired using an ImageQuant LAS 500 image analyzer (GE Healthcare, Hino, Japan).

[9] = test system: FTD/ALS model mice (C9-500 mice); experiment: Morris water maze test after nasal rifampicin (Test Example 1); format: in vivo, mouse; conditions: nasal 0.1 mg/day for 1 month; Tg mice 4.5 to 5 months old at start; vs CMC-treated Tg (p=0.0271, FIG. 4)
From the text: FVB/NJ-Tg(C9orf72)500Lpwr/J mice were purchased from The Jackson Laboratory (Bar Harbor, ME, USA). The mouse strain was generated as a model for the C9orf72-linked FTD/ALS expressing the human C9orf72 gene with 500 hexanucleotide (GGGGCC) repeats (hereinafter, it is also described as “FTD/ALS model mice”) using a bacterial artificial chromosome (BAC) vector. Transgenic (Tg) mice were crossed with wild-type FVB/NJcl mice, and the transgene was maintained as a heterozygote at the animal facility in our company.
The cognitive function of the mice was assessed in a Morris water maze test at the age of 4.5 months, and the motor function of the mice was assessed in the rotarod and inverted screen tests at the age of 4.5 months and at the age of 12 months in an above-described manner.
as §2

[10] = test system: FTD/ALS model mice (C9-500 mice); experiment: Double staining for RNA foci and cytoplasmic inclusions (Test Example 1); format: in vivo, mouse; conditions: PFC and MC; nasal 0.1 mg/day for 1 month; FIG. 6
From the text: To examine the formation of nuclear and cytoplasmic inclusions, the sections were double stained with antibodies to G-quadruplex and hnRNP H1 (Proteintech, Rosemont, IL, USA) without pretreatment for RNA foci, and pSer409/410-TDP-43 and amyloidogenic protein oligomers (F11G3; Sigma-Aldrich) after pretreatment at pH6 for TDP-43 oligomer inclusions. For DPR inclusions, the sections were double-stained with antibodies to poly-GA, poly-GP, poly-GR, and SQSTM1/p62 (A-6; Santa Cruz Biotechnology, Dallas, TX, USA) without pretreatment. After staining, FITC- and rhodamine-labeled secondary antibodies (Jackson Laboratory) were used. The specimens were then treated with TrueBlack Plus Lipofuscin (Biotium, Fremont, CA, USA) to quench the autofluorescence and mounted using a Vectashield vibrance antifade mounting medium with DAPI (Vector Laboratories). Images of the stained sections were taken with a BZ-X800 fluorescence microscope, and cells having inclusion bodies were counted in a certain area.
as §2

CC(=O)O.N [ammonium acetate]
RNA gelation and RNA foci formation [1]: inhibited

COc1cccc2c1C(=O)c1c(O)c3c(c(O)c1C2=O)C[C@@](O)(C(=O)CO)C[C@@H]3O[C@H]1C[C@H](N)[C@H](O)[C@H](C)O1 [doxorubicin]
RNA gelation and RNA foci formation [1]: inhibited

CN(C)C(=N)N=C(N)N [metformin]
RAN translation / PKR phosphorylation and phenotype of C9-500 mice [2]: suppress RAN translation by suppressing PKR phosphorylation

Oc1ccc(/C=C/c2cc(O)cc(O)c2)cc1 [resveratrol, 3,5,4′-trihydroxy-trans-stilbene]
expression of BDNF in the mouse brains [3]: elicited
cognitive function, Morris water maze [4]: significantly improved
solubility in water [5]: 0.03 mg/mL (≈ 131 µM)
synaptophysin levels (synaptic loss) ([6]; hippocampus CA2-3 region and dentate gyrus (DG), FIG. 11): significantly restored
levels of G-quadruplex ([6]; prefrontal cortex, FIG. 12): significantly reduced
levels of phosphorylated PKR ([6]; prefrontal cortex, FIG. 13): significantly reduced
levels of poly-GA and poly-GP ([6]; prefrontal cortex, FIG. 14): significantly reduced
levels of phosphorylated TDP-43 ([6]; prefrontal cortex, FIG. 15): significantly reduced

CO[C@H]1/C=C/O[C@@]2(C)Oc3c(C)c(O)c4c(O)c(c(/C=N/N5CCN(C)CC5)c(O)c4c3C2=O)NC(=O)/C(C)=C\C=C\[C@H](C)[C@H](O)[C@@H](C)[C@@H](O)[C@@H](C)[C@H](OC(C)=O)[C@@H]1C [rifampicin, 3-(4-Methylpiperazinyliminomethyl)rifamycin SV]
cognitive function, Morris water maze [4]: improved the cognitive function in the mice, but the effect was incomplete and not significant
levels of phosphorylated PKR [7]: significantly attenuated
inhibition of G-quadruplex formation [8]: failed to inhibit
memory performance (cognitive function), water maze test [9]: significantly improved
DPR cytoplasmic inclusions (DPRs and p62 double positive) [10]: significantly attenuated
TDP-43 oligomer cytoplasmic inclusions (pTDP-43 and F11G3 double positive) [10]: significantly attenuated
formation of RNA foci (G-quadruplex and hnRNP H double positive) [10]: significantly attenuated
